Results taken from publication PMC6155021, “Ancient and modern anticonvulsants act synergistically in a KCNQ potassium channel binding pocket” (Nature Communications, 2018).

Biological target: KCNQ2/3 channels (Homo sapiens, UniProt O43525+O43526)
Assay: Two-electrode voltage-clamp of KCNQ2/3 channels expressed in Xenopus laevis oocytes
Type: cell-based
Conditions: for Non-normalized tail current V0.5 / Normalized tail current V0.5 / Slope: KCNQ2/3; for effect on voltage dependence of KCNQ2/3 activation (initial screen): tail currents at −30 mV
Text: cRNA transcripts encoding human KCNA1, KCNQ1, KCNQ2, KCNQ3, KCNQ4, or KCNQ5 were generated by in vitro transcription using the T7 polymerase message machine kit (Thermo Fisher Scientific), after vector linearization, from cDNA sub-cloned into plasmids incorporating X. laevis β-globin 5′ and 3′ UTRs flanking the coding region to enhance translation and cRNA stability. cRNA was quantified by spectrophotometry. Mutant cDNAs were generated by site-directed mutagenesis using a QuikChange kit according to manufacturer’s protocol (Stratagene, San Diego, CA) and corresponding cRNAs prepared as above. Defolliculated stage V and VI X. laevis oocytes (Ecocyte Bioscience, Austin, TX) were injected with Kv channel α subunit cRNAs (10 ng total per oocyte). Oocytes were incubated at 16 °C in Barth’s saline solution (Ecocyte) containing penicillin and streptomycin, with daily washing, for 3–5 days prior to two-electrode voltage-clamp (TEVC) recording.
Oocytes were placed in a small-volume oocyte bath (Warner) and viewed with a dissection microscope. Chemicals were sourced from Sigma. Bath solution was (in mM): 96 NaCl, 4 KCl, 1 MgCl2, 1 CaCl2, 10 HEPES (pH 7.6). […] MTX (DMSO), sorbic acid (ethanol), and glutaconic acid (molecular grade H2O) were stored at −20 °C as 1 M stocks. Oleamide was stored as a 1 mM stock in ethanol at 4 °C. Palmitic acid was conjugated with bovine serum albumin as a 1 mM stock and stored at −20 °C. All compounds were diluted to working concentrations each experimental day. All compounds were introduced to the recording bath via gravity perfusion at a constant flow of 1 ml/min for 3 min prior to recording. Pipettes were of 1–2 MΩ resistance when filled with 3 M KCl. Currents were recorded in response to pulses between −80 and +40 mV at 20 mV intervals, or a single pulse to +40 mV, from a holding potential of −80 mV, to yield current–voltage relationships, current magnitude, and for quantifying activation rate. TEVC data analysis was performed with Clampfit10.2 (Molecular Devices) and Graphpad Prism software (GraphPad, San Diego, CA, USA); values are stated as mean ± SEM. Normalized tail currents were plotted versus prepulse voltage and fitted with a single Boltzmann function:1 g=A1-A2/1+expV12-Vy+A2, where g is the normalized tail conductance, A1 is the initial value at −∞, A2 is the final value at +∞, V1/2 is the half-maximal voltage of activation, and Vs the slope factor. Activation and deactivation kinetics were fitted with single-exponential functions.

| SMILES | Non-normalized tail current V0.5 (100 µM) [mV] | Normalized tail current V0.5 (100 µM) [mV] | Slope (100 µM) [mV] | Non-normalized tail current V0.5 (0.1 µM) [mV] | Normalized tail current V0.5 (0.1 µM) [mV] | Slope (0.1 µM) [mV] | Non-normalized tail current V0.5 (1 µM) [mV] | Normalized tail current V0.5 (1 µM) [mV] | Slope (1 µM) [mV] | Non-normalized tail current V0.5 (10 µM) [mV] | Normalized tail current V0.5 (10 µM) [mV] | Slope (10 µM) [mV] | also measured |
| --- | --- | --- | --- | --- | --- | --- | --- | --- | --- | --- | --- | --- | --- |
| C=CCCCCC [1-Heptene] | -41.9 ± 4.9 | -41.8 ± 0.9 | 5.8 ± 1.5 | – | – | – | – | – | – | – | – | – | – |
| CCC1=C(O)C(=O)CC1 [3-ethyl-2-hydroxy-2-cyclopenten-1-one] | -40.1 ± 1.9 | -41.0 ± 0.9 | 5.1 ± 0.9 | – | – | – | – | – | – | – | – | – | – |
| O=C(O)/C=C/CC(=O)O [Glutaconic Acid, glutaconic acid] | -40.8 ± 3.8 | -40.7 ± 1.2 | 5.4 ± 1.7 | -40.4 ± 1.5 | -41.2 ± 1.4 | 4.4 ± 3.7 | -41.5 ± 1.3 | -42.7 ± 1.7 | 4.8 ± 2.4 | -42.1 ± 3.8 | -42.9 ± 2.2 | 5.4 ± 2.3 | effect on voltage dependence of KCNQ2/3 activation (initial screen) (100 µM): negative-shifted; Non-normalized tail current V0.5 (500 µM): -38.5 ± 5.4 mV; Normalized tail current V0.5 (500 µM): -37.7 ± 0.9 mV; Slope (500 µM): 6.8 ± 0.9 mV |
| CCCCCCCC/C=C\CCCCCCCC(N)=O [Oleamide, oleamide] | -41.9 ± 3.5 | -41.5 ± 0.8 | 6.6 ± 0.8 | -41.9 ± 4.8 | -41.8 ± 0.6 | 6.5 ± 0.9 | -41.6 ± 4.3 | -41.5 ± 0.8 | 6.7 ± 1.1 | -39.4 ± 4.8 | -39.2 ± 0.8 | 7.0 ± 0.8 | Non-normalized tail current V0.5 (500 µM): -37.6 ± 2.1 mV; Normalized tail current V0.5 (500 µM): -37.9 ± 0.8 mV; Slope (500 µM): 6.7 ± 0.6 mV |
| CCCCCCCCCCCCCCCC(=O)O [Palmitic Acid, palmitic acid] | – | – | – | -43.6 ± 5.0 | -44.3 ± 1.7 | 7.9 ± 1.7 | -45.6 ± 5.5 | -46.6 ± 1.7 | 7.4 ± 1.7 | -43.1 ± 4.9 | -44.9 ± 0.9 | 6.8 ± 0.9 | effect on voltage dependence of KCNQ2/3 activation (initial screen) (30 µM): negative-shifted; Non-normalized tail current V0.5 (3 µM): -45.1 ± 5.4 mV; Normalized tail current V0.5 (3 µM): -46.5 ± 1.1 mV; Slope (3 µM): 7.1 ± 1.1 mV; Non-normalized tail current V0.5 (30 µM): -43.5 ± 4.9 mV; Normalized tail current V0.5 (30 µM): -44.3 ± 1.4 mV; Slope (30 µM): 7.0 ± 1.1 mV |
| C/C=C/C=C/C(=O)O [Sorbic Acid, sorbic acid] | -39.9 ± 3.0 | -39.9 ± 0.9 | 4.2 ± 0.9 | – | – | – | – | – | – | – | – | – | – |
| O=C1c2ccccc2C(Cc2ccncc2)(Cc2ccncc2)c2ccccc21 [XE991, reference compound] | – | – | – | – | – | – | – | – | – | – | – | – | effect on MTX-activated KCNQ2/3 current (wash-in of MTX followed by XE991, −60 mV): rapidly inhibited |
